For assay [1], the system named is retinal pigment epithelial cell line ARPE-19. The assay can be described thus: Reduction of reactive oxygen species (DCF-DA fluorescence microscopy) in H2O2-treated retinal pigment epithelial cells. It is filed as cell-based. The conditions noted are these: ARPE-19, H2O2 50 µM; metformin 1 mM (positive control). An excerpt:
(§1) Reactive oxygen species were generated by treating retinal pigment epithelial cell line ARPE-19 with hydrogen peroxide (H2O2).

Assay [2] shares this test system. The assay can be described thus: Epithelial-mesenchymal transition (cadherin 1 / vimentin, confocal microscopy) in H2O2-treated retinal pigment epithelial cells. It is filed as cell-based. Particulars: ARPE-19, H2O2 50 µM; metformin 1 mM (positive control).
Text: as §1

For assay [3], the system named is mouse model of age-related macular degeneration. The assay can be described thus: Short-term administration in NaIO3 mouse model of age-related macular degeneration (phalloidin-stained RPE/choroid flat mount). The class given is in vivo, C57BL/6 mice. Particulars: NaIO3 20 mg/kg IV; metformin 4 mg/mL in drinking water for 7 days before NaIO3. An excerpt: Mice injected with sodium iodate (NaIO3) are used as a representative model of age-related macular degeneration. A mouse model of age-related macular degeneration was established by injecting NaIO3 into C57BL/6 mice, thereby inducing oxidative stress specific to retinal pigment epithelial cells and causing damage.

On to `CN(C)C(=N)N=C(N)N` [metformin], for which the DCF-DA fluorescence intensity result in assay [1] is recorded as “decreased”. For the same molecule, the epithelial-mesenchymal transition result in assay [2] is on record as “reduced”. For the same molecule, the tight junction structure entry in assay [3] is given as “maintained”.

Values taken from patent EP4714462A1, “COMPOSITION COMPRISING GV1001 FOR PREVENTING OR TREATING MACULAR DEGENERATION” (Gemvax & Kael Co., Ltd., priority 2023, dated 2024).
